In PubChem BioAssay AID602296 (Broad Institute, 2012):
Inconclusive results are not listed. Calls of active or inactive are those of the source.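 Rule for the calls: active = fitted activation curve crossing 40% at a concentration no higher than the sample's top valid tested dose; inconclusive = flat fitted curve at 30% to 70% activation, or poor curve fit; inactive = signal decrease, flat curve within 30%, or the rest.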

test system: NIH3T3-HGL HSF-1 response element luciferase, 48 h; test: HSF-1 reporter activators over prolonged exposure, confirmation, cell-based, mouse, luciferase, cherry-pick, dose (AID 602296);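 note: test compounds applied by themselves with no MG132 co-treatment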

| SMILES | AC40 |
| --- | --- |
| O=C(NNc1c(Cl)cccc1Cl)C1CCC1 | 23.5 µM |
| Cn1cc(C=O)c(-c2ccc3c(c2)OCCCO3)n1 | 3.77 µM |
| O=C(CN1C(=O)NC2(CCCC2)C1=O)NCCN1C(=O)S/C(=C\c2ccccc2F)C1=O | > 26 µM (inactive) |
| COc1cccc(N=CC2=C(O)CC(C)(C)CC2=O)c1 | > 26 µM (inactive) |
| CC(C)(C)C(=O)NCC12C=CC(O1)C1C(=O)N(c3ccccc3)C(=O)C12 (configuration not stated) | > 26 µM (inactive) |
| CC(C)CCN=CC1=C(O)CC(c2ccccc2)CC1=O (configuration not stated) | > 26 µM (inactive) |
| Cc1cccc(NC(=O)CSc2nnc(-c3ccco3)c(-c3ccco3)n2)c1C | > 26 µM (inactive) |
| C/C(CC(=O)Nc1cccc2c1CCCC2)=N\NC(=O)COc1ccccc1 | > 26 µM (inactive) |
| O=C(Nc1cccn2ncnc12)C(F)(F)F | > 26 µM (inactive) |
| NC(=O)Cc1ccc2c(c1)[nH]c1ccccc12 | > 26 µM (inactive) |
| CCN(CC)C(=O)Oc1ccc(Br)cc1C(=O)Nc1ccc(F)cc1F | > 26 µM (inactive) |
| O=C(NNc1cccc(Cl)n1)Nc1ccc(Cl)cc1 | > 26 µM (inactive) |
| Cc1ccc(=O)n(C(C(=O)NCc2ccco2)C(=O)c2ccc(F)cc2)c1 (configuration not stated) | > 26 µM (inactive) |
| CCN(/N=C/C=C/c1ccccc1)c1cc(=O)n(C)c(=O)[nH]1 | > 26 µM (inactive) |
| COc1cccc(/C=N/NC(=S)NC2CC3CC2C2C=CCC32)c1O (configuration not stated) | > 26 µM (inactive) |
| O=C1/C(=C\c2ccc(Br)o2)Cc2ccccc21 | 10.7 µM |
| Cc1ccc(NC(=O)c2cc3c(=O)oc4ccccc4c3s2)nc1 | > 26 µM (inactive) |
| COCc1cc(=O)[nH]c(SCCS(=O)(=O)c2ccc(Cl)cc2Cl)n1 | > 12 µM (inactive) |
| CCC(=O)N1CCN(c2ccc(NC(=O)COc3ccc(C)cc3C)cc2)CC1 | > 26 µM (inactive) |
| C/C(=N\NC(=O)c1cccc(N/N=C(\C)c2cc(O)ccc2O)c1)c1cc(O)ccc1O | > 12 µM (inactive) |
| COc1cccc(C2C(C(N)=O)=C(C)Nc3nc(-c4cccc(Cl)c4)nn32)c1 (configuration not stated) | > 26 µM (inactive) |
| COc1cc(SSc2cc(OC)cc([N+](=O)[O-])c2N)c(N)c([N+](=O)[O-])c1 | 17.9 µM |

| SMILES | AC40 |
| --- | --- |
| Fc1ccccc1-c1nc2nc3ccccc3nc2n1CC1CCCO1 (configuration not stated) | 21.8 µM |
| N#CC(C#N)=C1C=CC=CN1/C(=C\c1ccccc1)C(=O)c1cccs1 | 12.3 µM |
| COc1cccc(CN2CC(C(=O)NCc3ccc(C)o3)CCC2=O)c1 (configuration not stated) | > 26 µM (inactive) |
| Cc1[nH]c2ccccc2c1/C=C(\C#N)C(=O)NCC1CCCO1 (configuration not stated) | 9.18 µM |
| COC(=O)c1cc(OC)c(OC)cc1NC(=S)NC(=O)c1ccco1 | > 26 µM (inactive) |
| COC(=O)C1CCN(C(=O)COC(=O)c2ccc(OC)c(S(=O)(=O)N3CCCc4ccccc43)c2)CC1 | 9.15 µM |
| COC(=O)C(C)Sc1ncnc2c1nnn2-c1ccc(F)cc1 (configuration not stated) | 5.57 µM |
| CCOC(=O)CSc1cc(-c2ccccc2)nc2ncnn12 | > 26 µM (inactive) |
| CCc1nc(SCC(=O)c2ccc(Cl)s2)c2oc3ccccc3c2n1 | 18.6 µM |
| COc1ccc(OC)c(-n2c(=O)c3ccccc3c3ccccc3c2=O)c1 | 12.4 µM |
| COCCCNc1nc2nonc2nc1N1CCN(Cc2cccc(C)c2)CC1 | > 26 µM (inactive) |
| Cc1onc(-c2ccccc2)c1C(=O)OCc1nnc(-c2ccccc2)o1 | > 26 µM (inactive) |
| Fc1cc(NCc2ccccc2)nc(NCc2ccccc2)n1 | 9.52 µM |
| COc1ccc(/C=C/C(=O)NCCCc2ccccc2)cc1 | > 26 µM (inactive) |
| CC(=O)N=c1sccn1CC(=O)c1ccc([N+](=O)[O-])cc1 | > 26 µM (inactive) |
| COc1cc2c(cc1OC)C(CCc1ccccc1)=NCC2 | > 26 µM (inactive) |
| CSC(=NC#N)N1CCN(c2ccc(Cl)cc2)CC1 | 25.3 µM |
| COc1ccc(OCc2nnnn2-c2ccccc2)cc1 | 25.7 µM |
| COC(=O)[C@@H]1C[C@]2(OC(=O)c3ccccc3)C=CC(=O)C[C@@H]2N1C(=O)OCc1ccccc1 | 12.4 µM |
| CCCNC(=O)NC(=O)CSc1cccc(C(F)(F)F)c1 | 13.5 µM |
| COCCCn1c(Cc2csc(Nc3ccc(F)cc3)n2)nnc1SCC(N)=O | > 26 µM (inactive) |
| C=CCn1c(O)c(C(CC)=Nc2ccc3c(c2)CCC3)c(=O)[nH]c1=O | > 12 µM (inactive) |

| SMILES | AC40 |
| --- | --- |
| CCOC(=O)C1CCCN(C(=O)c2sc3nc(C)nc(N(CC)CC)c3c2C)C1 (configuration not stated) | > 26 µM (inactive) |
| O=C1NC(=S)S/C1=C/c1ccc(OC(=O)c2ccco2)cc1 | 22.5 µM |
| Cc1nn(C(C)C(=O)NCCCN2CCCCC2C)c(=O)c2c1sc1ccccc12 (configuration not stated) | > 26 µM (inactive) |
| CCn1nc(C)cc1C(=O)Sc1ccc(Cl)cc1Cl | 14.5 µM |
| COc1ccc(C(=O)NCC(=O)OCC(=O)c2ccc3c(c2)NC(=O)CO3)cc1 | > 26 µM (inactive) |
| O=C(Nc1cccn(Cc2c(Cl)cccc2Cl)c1=O)c1ccccc1Cl | > 26 µM (inactive) |
| [O-]/[N+](=C\c1ccc(OC(F)F)cc1)c1ccccc1 | > 26 µM (inactive) |
| CC1(C)CC(=O)C=C(NC2=CC3OC(c4ccccc4)OCC3OC2=O)C1 (configuration not stated) | 13.2 µM |
| Cn1nnc2c[n+](CC(=O)c3ccc4ccccc4c3)cc(Br)c21 | > 26 µM (inactive) |
| CCc1[nH]nc2c1C1(CCN(C(=O)OCc3ccccc3)CC1)C(C#N)=C(N)O2 | > 26 µM (inactive) |
| COc1ccc(-c2cc(C(=O)NCc3ccco3)c3ccccc3n2)cc1 | > 26 µM (inactive) |
| Cc1ccccc1CC1(CO)CCCN(C(=O)c2ccccc2Cl)C1 (configuration not stated) | > 26 µM (inactive) |
| CC12CCC3C(CC=C4CC(O)CCC43C)C1C/C(=C\N1CCCC1)C2=O (configuration not stated) | > 26 µM (inactive) |
| O=C(O)c1csc(N/N=C/c2ccc(Br)cc2)n1 | > 26 µM (inactive) |
| CCCNC(=O)Nc1ccc(C)cc1C | > 26 µM (inactive) |
| COc1ccc(C)cc1Cn1c(S(C)(=O)=O)nc2ccccc21 | > 26 µM (inactive) |
| N#C/C(=C(\O)C(F)(F)F)c1nnc2n1CCCCC2 | > 26 µM (inactive) |
| Cc1nc2scc(-c3ccc(Cl)cc3)c2c(=O)n1N | > 26 µM (inactive) |
| CCOC(=O)C1=NN(C(=O)c2ccccc2)C(O)(c2ccc(C)cc2)C1 (configuration not stated) | 8.91 µM |
| O=C(O)CSc1c(-c2ccccc2)[nH]c2ccccc12 | > 26 µM (inactive) |
| CCC(C)n1c(SCC(=O)NC(=O)Nc2ccc3c(c2)OCCO3)nc2ccccc2c1=O (configuration not stated) | > 26 µM (inactive) |
| C(=N\N1CCN(Cc2cccc3ccccc23)CC1)/c1cccnc1 | > 26 µM (inactive) |

| SMILES | AC40 |
| --- | --- |
| O=c1c2cc(N3CCOCC3)ccc2[nH]c(=S)n1Cc1ccccn1 | 23.5 µM |
| COc1ccc(-c2coc3cc4oc(=O)c(CC(=O)O)c(C)c4cc23)cc1 | > 26 µM (inactive) |
| COCCCNCCOc1ccc(C)cc1[N+](=O)[O-] | > 26 µM (inactive) |
| Nc1nnc(SCc2c(F)cccc2Cl)s1 | 14.4 µM |
| c1ccc2[nH]c3cc4ncnc4cc3nc2c1 | 5.43 µM |
| CCNC(=S)N/N=C/c1ccc(-c2ccccc2)o1 | > 26 µM (inactive) |
| CN(Cc1ccccc1)C(=O)c1cc(-c2ccc(Br)cc2)on1 | 2.21 µM |
| CC1=C(C(=O)N2CCOCC2)C(c2c(C)cc(C)cc2C)NC(=S)N1 (configuration not stated) | > 26 µM (inactive) |
| COc1ccc(-c2nc3scc(-c4ccccc4)n3n2)cc1 | 3.34 µM |
| COc1ccc(C2C(C(C)=O)=C(O)C(=O)N2c2ccc(C)cc2)cc1 (configuration not stated) | > 26 µM (inactive) |
| CCC1Oc2ccc(C)cc2N(Cc2cccc(C)c2)C1=O (configuration not stated) | 13.1 µM |
| Cc1ccccc1NC(=O)C1CCCN(C(=O)NCc2ccccc2)C1 (configuration not stated) | > 26 µM (inactive) |
| COC(=O)c1cnc(N2CCCN(S(=O)(=O)c3ccc(C(F)(F)F)cc3)CC2)nc1C(F)(F)F | > 26 µM (inactive) |
| NC(CSCc1cccc(Br)c1)C(=O)O (configuration not stated) | > 26 µM (inactive) |
| CCN1C(=O)CC(N2CCN(c3ccc(C(=O)c4ccccc4)cc3)CC2)C1=O (configuration not stated) | 3.85 µM |
| Cc1cc(-c2ccc(C(C)C)c(S(=O)(=O)NCCN3CCC(C)CC3)c2)on1 | > 26 µM (inactive) |
| Cn1c(=O)oc2cc(S(=O)(=O)N3CCCCC3)ccc21 | > 26 µM (inactive) |
| COc1ccc(N2CCN(c3ncnc4c3cnn4-c3ccc(C)cc3C)CC2)cc1 | > 26 µM (inactive) |
| CC1(C)CC(=O)C(C2C3=C(CC(C)(C)CC3=O)OC3=C2C(=O)CC(C)(C)C3)=C(O)C1 | > 26 µM (inactive) |
| CN(Cc1ccccc1)C(=O)CCC1CCN(C(=O)CC2=CCCCC2)CC1 | > 26 µM (inactive) |
| Cn1c2ccc(F)cc2c2ncn(CCN3CCOCC3)c(=O)c21 | > 26 µM (inactive) |
| CC1(C)c2cc(O)ccc2OC1N1CCOCC1 (configuration not stated) | > 26 µM (inactive) |

| SMILES | AC40 |
| --- | --- |
| CCOC(=O)c1c(C)c(C(=O)Nc2ccc3c(c2)OCO3)c(C)n1C | 24.1 µM |
| Clc1ccc(-c2nc(/C=N/N3CCOCC3)c3ccccn23)cc1 | 18.3 µM |
| CCCCc1cc(O)c(CCCC)c(O)c1 | 4.58 µM |
| c1ccc(SCCOCCN2CCOCC2)cc1 | > 26 µM (inactive) |
| CCN(CC)C(=O)CSc1ncnc2sc(C)c(C)c12 | > 26 µM (inactive) |
| CCn1c(SCC(=O)c2ccc(Cl)cc2)nnc1-c1ccoc1C | 11.1 µM |
| CCc1nnc(N/N=C/c2ccccc2Cl)n1N | 21.9 µM |
| O=C1C2CC=CCC2C(=O)N1Cc1nnc(-c2ccc(Cl)cc2)o1 (configuration not stated) | 6.68 µM |
| CCOc1ccc2nc(COC(=O)c3cccc([N+](=O)[O-])c3)c(C(C)=O)[n+]([O-])c2c1 | > 26 µM (inactive) |
| S=c1sc2c(Cl)ncnc2n1-c1ccccc1 | > 12 µM (inactive) |
| Cc1ccc(N2C(=O)SC(N(CC(=O)O)c3ccc(C)cc3)C2=O)cc1 (configuration not stated) | 9.53 µM |
| Cc1ccc(N2Cc3ccccc3OC(C)C2=O)cc1 (configuration not stated) | > 26 µM (inactive) |
| CNC(=O)C1CC(=O)N(c2ccc(OCC(=O)N3CCCC3)cc2)C1 (configuration not stated) | > 26 µM (inactive) |
| Cc1ccc(NC2c3ncccc3C(=O)N2C2CCCCC2)cc1 (configuration not stated) | > 26 µM (inactive) |
| Nc1nnc(SCC(=O)Nc2cccc3ccccc23)s1 | > 26 µM (inactive) |
| O=C(N/N=C/CCc1ccccc1)c1ccccc1 | 15.5 µM |
| COc1cc(NC(=O)Cc2cccs2)ccc1-n1cnnn1 | > 26 µM (inactive) |
| C/C(=N\NC(=O)c1ccoc1C)c1cccc2ccccc12 | 10.2 µM |
| Cn1c(CCCOc2ccc(Cl)cc2Cl)nnc1SCC(=O)Nc1cccc(F)c1 | 20.2 µM |
